For assay [1], the system named is Mus musculus. Put plainly: Immunostimulatory activity in BALB/c (H-2d) mouse assessed as increase in IgG level at 30 ug, sc per week for 5 weeks measured on day 9 after last immunization by ELISA relative to untreated-control. In kind it is functional, organism-based. (ELISA stands for enzyme-linked immunosorbent assay.)
In assay [2] the test system is Mus musculus. Nature of the assay: Immunostimulatory activity in BALB/c (H-2d) mouse assessed as increase in IgG level at 30 ug, sc per week for 5 weeks coadministered with complete freund's adjuvant measured on day 9 after last immunization by ELISA. Type of assay: functional, organism-based.
Assay [3] has as its target Toll-like receptor 2 (Homo sapiens) (UniProt O60603). Put plainly: Activation of human TLR2 expressed in HEK293 cells at 100 to 300 nM after 4 hrs by luciferase reporter gene assay. In kind it is cell-based.

Active and inactive are the calls of the source. The rule behind the calls is not given here. Where a SMILES comes first, the peptide text is derived from it. [ ]: non-standard residue; d: D form. The star is where a group is joined. ξ: configuration not given here. αGalNAc = CC(=O)N[C@@H]1[C@@H](O)[C@@H](O)[C@@H](CO)O[C@@H]1*; ξGly(tetradecyl) = CCCCCCCCCCCCCCC(N)C(=O)O

Sequence of Toll-like receptor 2 (Homo sapiens) (O60603 whole entry): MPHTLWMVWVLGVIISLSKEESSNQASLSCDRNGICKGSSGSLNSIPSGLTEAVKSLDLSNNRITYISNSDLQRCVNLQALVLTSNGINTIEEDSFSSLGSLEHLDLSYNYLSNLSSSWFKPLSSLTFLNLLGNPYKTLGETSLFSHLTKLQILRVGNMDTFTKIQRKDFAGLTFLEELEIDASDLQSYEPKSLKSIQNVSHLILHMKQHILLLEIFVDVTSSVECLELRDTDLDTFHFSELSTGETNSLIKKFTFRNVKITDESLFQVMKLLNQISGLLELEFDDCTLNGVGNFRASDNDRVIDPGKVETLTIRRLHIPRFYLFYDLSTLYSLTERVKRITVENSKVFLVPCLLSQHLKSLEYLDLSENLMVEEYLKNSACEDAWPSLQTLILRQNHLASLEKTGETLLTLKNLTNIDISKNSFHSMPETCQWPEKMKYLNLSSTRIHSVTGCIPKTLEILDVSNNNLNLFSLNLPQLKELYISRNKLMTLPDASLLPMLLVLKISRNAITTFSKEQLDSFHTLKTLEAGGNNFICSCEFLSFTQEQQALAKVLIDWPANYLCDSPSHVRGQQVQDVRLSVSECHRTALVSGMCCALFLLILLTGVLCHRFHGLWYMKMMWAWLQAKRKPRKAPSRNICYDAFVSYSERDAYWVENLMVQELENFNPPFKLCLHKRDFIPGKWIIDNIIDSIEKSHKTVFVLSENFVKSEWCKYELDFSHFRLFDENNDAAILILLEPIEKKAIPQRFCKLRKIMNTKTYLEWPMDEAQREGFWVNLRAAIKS

With `CCCCCCCCCCCCCCC(NC(=O)C(CCCCCCCCCCCCCC)NC(=O)[C@H](CO)NC(=O)[C@H](CO)NC(=O)[C@H](CCCCN)NC(=O)[C@H](CO[C@H]1O[C@H](CO)[C@H](O)[C@H](O)[C@H]1NC(C)=O)NC(=O)[C@H](CO[C@H]1O[C@H](CO)[C@H](O)[C@H](O)[C@H]1NC(C)=O)NC(=O)[C@H](CO[C@H]1O[C@H](CO)[C@H](O)[C@H](O)[C@H]1NC(C)=O)NC(=O)[C@@H](NC(=O)[C@H](CC(=O)O)NC(=O)[C@H](CCCCN)NC(=O)[C@H](Cc1ccc(O)cc1)NC(=O)[C@@H](NC(=O)[C@@H](NC(=O)[C@H](CCCCN)NC(=O)[C@H](Cc1c[nH]c2ccccc12)NC(=O)[C@@H](NC(=O)[C@H](C)NC(=O)[C@H](Cc1ccccc1)NC(=O)[C@H](CC(C)C)NC(=O)[C@H](CCCCN)NC(C)=O)C(C)C)[C@@H](C)CC)[C@@H](C)O)[C@@H](C)O)C(N)=O` (stereo partly specified), the result in the assay with Mus musculus [1] and in the assay with Mus musculus [2] was Active. As for `CCCCCCCCCCCCCCC(NC(=O)C(CCCCCCCCCCCCCC)NC(=O)[C@H](CO)NC(=O)[C@H](CO)NC(=O)[C@H](CCCCN)NC(=O)[C@H](CO[C@H]1O[C@H](CO)[C@H](O)[C@H](O)[C@H]1NC(C)=O)NC(=O)[C@H](CO[C@H]1O[C@H](CO)[C@H](O)[C@H](O)[C@H]1NC(C)=O)NC(=O)[C@H](CO[C@H]1O[C@H](CO)[C@H](O)[C@H](O)[C@H]1NC(C)=O)NC(=O)[C@H](CCCCNC(=O)[C@H](CC(C)C)NC(=O)[C@H](CCCCN)NC(=O)[C@H](CCC(=O)O)NC(=O)[C@H](Cc1ccccc1)NC(=O)[C@H](CC(N)=O)NC(=O)[C@@H](NC(=O)[C@@H](NC(=O)[C@H](CO)NC(C)=O)[C@@H](C)CC)[C@@H](C)CC)NC(=O)[C@@H](NC(=O)[C@H](CC(=O)O)NC(=O)[C@H](CCCCN)NC(=O)[C@H](Cc1ccc(O)cc1)NC(=O)[C@@H](NC(=O)[C@@H](NC(=O)[C@H](CCCCN)NC(=O)[C@H](Cc1c[nH]c2ccccc12)NC(=O)[C@@H](NC(=O)[C@H](C)NC(=O)[C@H](Cc1ccccc1)NC(=O)[C@H](CC(C)C)NC(=O)[C@H](CCCCN)NC(C)=O)C(C)C)[C@@H](C)CC)[C@@H](C)O)[C@@H](C)O)C(N)=O` (stereo partly specified), the result with Mus musculus [1] was inactive.

Consider `CCCCCCCCCCCCCCC(NC(=O)C(CCCCCCCCCCCCCC)NC(=O)[C@H](CO)NC(=O)[C@H](CO)NC(=O)[C@H](CCCCN)NC(=O)[C@H](CO[C@H]1O[C@H](CO)[C@H](O)[C@H](O)[C@H]1NC(C)=O)NC(=O)[C@H](CO[C@H]1O[C@H](CO)[C@H](O)[C@H](O)[C@H]1NC(C)=O)NC(=O)[C@H](CO[C@H]1O[C@H](CO)[C@H](O)[C@H](O)[C@H]1NC(C)=O)NC(=O)[C@@H](NC(=O)[C@H](CC(=O)O)NC(=O)[C@H](CCCCN)NC(=O)[C@H](Cc1ccc(O)cc1)NC(=O)[C@@H](NC(=O)[C@@H](NC(=O)[C@H](CCCCN)NC(=O)[C@H](Cc1c[nH]c2ccccc12)NC(=O)[C@@H](NC(=O)[C@H](C)NC(=O)[C@H](Cc1ccccc1)NC(=O)[C@H](CC(C)C)NC(=O)[C@H](CCCCN)NC(=O)[C@H](CC(C)C)NC(=O)[C@H](CCCCN)NC(=O)[C@H](CCC(=O)O)NC(=O)[C@H](Cc1ccccc1)NC(=O)[C@H](CC(N)=O)NC(=O)[C@@H](NC(=O)[C@@H](NC(=O)[C@H](CO)NC(C)=O)[C@@H](C)CC)[C@@H](C)CC)C(C)C)[C@@H](C)CC)[C@@H](C)O)[C@@H](C)O)C(N)=O` (stereo partly specified), for which the outcome in the assay with Mus musculus [1] was inactive. In addition, the outcome with Mus musculus [2] was Active. Regarding `CCCCCCCCCCCCCCC(NC(=O)C(CCCCCCCCCCCCCC)NC(=O)[C@H](CO)NC(=O)[C@H](CO)NC(=O)[C@H](CCCCN)NC(=O)[C@H](CO[C@H]1O[C@H](CO)[C@H](O)[C@H](O)[C@H]1NC(C)=O)NC(C)=O)C(N)=O` (stereo partly specified) (Ac-S(αGalNAc)KSS[ξGly(tetradecyl)][ξGly(tetradecyl)]-NH2), the result in assay [3] was Active.

The record behind these values is ChEMBL document CHEMBL2163216, “Design of fully synthetic, self-adjuvanting vaccine incorporating the tumor-associated carbohydrate Tn antigen and lipoamino acid-based Toll-like receptor 2 ligand” (J Med Chem, 2012).
